In patent US20240181000A1, “LGG-DERIVED PEPTIDES AND METHODS OF USE THEREOF” (Ohio State Innovation Foundation, priority 2021, published 2024):
Read-outs that look alike come from different tables or passages of the source. Marks after values point to notes of the source that are not given here. No end group written: not given here.

Key:
APEC O78 = format: cell-based, E. coli
Protocol: Anti-APEC activity determination: The anti-APEC activity of peptides was determined in LB broth following CLSI guidelines. Briefly, overnight grown APEC O78 was adjusted to 5×10^5 CFU/mL concentration in fresh LB media. One-hundred microliters of APEC suspension was aliquoted into the wells of the 96-well plate. Peptides were added to the wells at 6 mM and 12 mM concentrations and incubated at 37° C. in TECAN Sunrise™ absorbance microplate reader with kinetic absorbance measurement set at every 30 mins for 12 h. Sterile media and DMSO (solvent) were used as controls. The growth inhibitory activity of the peptides against APEC was calculated using the formula: (OD600 DMSO treated well−OD600 peptide treated well)/OD600 DMSO treated well×100%.
The minimum inhibitory concentration (MIC) was determined for selected peptides (P1, P2, P3, and P4) using similar assay as above. Peptides were added to the wells of the 96-well plate at 6 mM, 9 mM, 12 mM, 15 mM, and 18 mM concentrations. The peptide concentration at which there is no visible APEC growth (no OD increase) was determined as MIC. Two independent experiments were conducted.
Arginine and lysine substituted peptide analogues: The non-essential amino acid residues identified in each peptide were substituted with arginine/lysine to test whether these substitutions enhance the anti-APEC activity of peptides. The MICs of arginine and lysine substituted peptide analogues ([…] (SEQ ID NO:37), […] (SEQ ID NO:38), […] (SEQ ID NO:39), KDENK (SEQ ID NO:41), PDEKK (SEQ ID NO:42), KDEKK (SEQ ID NO:43), KHTAPK (SEQ ID NO:45), VKTAPK (SEQ ID NO:46), VHTKPK (SEQ ID NO:47), and KKTKPK (SEQ ID NO:48)) were determined as above and compared with original peptides.

cecal microbiota = assay: Cecal microbiome analysis (peptides, ST infected); format: in vivo, chickens; settings: for Relative Abundance (%) Acinetobacter / Relative Abundance (%) Blautia / Relative Abundance (%) Caproiciproducens / Relative Abundance (%) Enterobacteriaceae (unidentified) / Relative Abundance (%) Epulopiscium / Relative Abundance (%) Lachnospiraceae (unidentified) / Relative Abundance (%) Lachnospiraceae NK4A136 group / Relative Abundance (%) Lactobacillus / Relative Abundance (%) Sellimonas / Relative Abundance (%) [Clostridium] innocuum group / Relative Abundance (%) [Eubacterium] coprostanoligenes group / Relative abundance (%) Anaerotruncus / Relative abundance (%) Clostridium sensu stricto 1 / Relative abundance (%) Enterococcus / Relative abundance (%) Erysipelatoclostridium / Relative abundance (%) Escherichia-Shigella / Relative abundance (%) Flavonifractor / Relative abundance (%) Lachnospiraceae (uncultured) / Relative abundance (%) Oscillibacter / Relative abundance (%) Pediococcus / Relative abundance (%) Ruminiclostridium 5 / Relative abundance (%) Ruminiclostridium 9 / Relative abundance (%) Ruminococcus torques group: genus
Protocol: Cecal microbiome analysis: To evaluate the role P1, P2, and P4 (50 mg/kg) treatment on the cecal microbiome of chickens, 16S rRNA based metagenomic study was conducted as previously described. DNA was extracted from approximately 0.2 g of cecal content using PureLink™ Microbiome DNA Purification Kit (Thermofisher Scientific). After which, RNA was removed with the treatment of RNase A (2 μL of 100 mg/mL solution per sample: Qiagen). NanoDrop 2000c Spectrophotometer (ThermoFisher Scientific) was used to check the quality and measure the quantity of the DNA. The extracted DNA was used in 16S rRNA V4-V5 sequencing done at MCIC (mcic.osu.edu/genomics/illumina-sequencing). Amplicon libraries were prepared using IFU KAPA HiFi HotStart ReadyMixPCR Kit (Roche). PCR products were cleaned using Agencourt AMPure XP beads (BECKMAN COULTER Life Sciences). Nextera XT DNA Library Preparation Kit (Illumina) was used to generate Illumina library and sequencing done with Illumina MiSeq platform generating paired end 300-bp reads. QIIME 2 (Quantitative Insights Into Microbial Ecology) bioinformatics platform (qiime2.org/) was used to conduct metagenomic analysis. Quality control of the raw reads was performed using FastQC 0.11.8 (Babraham Bioinformatics). Trimmomatic-0.33 was used to trim the adaptor and other Illumina-specific sequences (www.usadellab.org/cms/?page=trimmomatic). After which trimmed sequences (fastq.gz) were then imported into QIIME 2 as a manifest file format (PairedEndManifestPhred33V2). DADA2 was then used for the feature table construction and additional filtering of sequences. Taxonomic analysis was performed using Naive Bayes classifiers trained on the Silva 132 99% OTUs (silva-132-99-nb-classifier.qza) database. Phylogenetic diversity was analyzed using align-to-tree-mafft-fasttree pipeline. Additionally, Shannon's diversity index (alpha diversity) and Bray-Curtis distance (beta diversity) were analyzed using core-metrics-phylogenetic pipeline (docs.qiime2.org/2019.7/tutorials/moving-pictures/). Alpha and beta diversity statistical significance were analyzed using Kruskal-Wallis and PERMANOVA tests (P<0.05), respectively. The statistical difference (P<0.05) in the taxonomic composition between the groups was determined using Mann Whitney Test.

multiple APEC serotypes = format: cell-based, E. coli
Protocol: Anti-APEC spectrum determination: Peptides (P1, P2, and P3) were tested against multiple APEC serotypes/strains to determine their spectrum of activity. Peptides were added at their MICs and the growth inhibitory activity of the peptides was determined as described above.

Substance: MLNERVK [Peptide P4, MLNERVK]
- MIC (APEC O78): > 18 mM
- MIC50 (APEC O78): 20.0 mM
- Relative abundance of Lachnospiraceae (cecal microbiota; family, negative control 53%): 78%
- Relative Abundance (%) Acinetobacter (cecal microbiota): 0.00%
- Relative Abundance (%) Blautia (cecal microbiota): 1.60%
- Relative Abundance (%) Caproiciproducens (cecal microbiota): 0.00%
- Relative Abundance (%) Enterobacteriaceae (unidentified) (cecal microbiota): 4.54%
- Relative Abundance (%) Epulopiscium (cecal microbiota): 0.00%
- Relative Abundance (%) Lachnospiraceae (unidentified) (cecal microbiota): 44.19%
- Relative Abundance (%) Lachnospiraceae NK4A136 group (cecal microbiota): 0.53%
- Relative Abundance (%) Lactobacillus (cecal microbiota): 7.01%
- Relative Abundance (%) Sellimonas (cecal microbiota): 0.57%
- Relative Abundance (%) [Clostridium] innocuum group (cecal microbiota): 0.00%
- Relative Abundance (%) [Eubacterium] coprostanoligenes group (cecal microbiota): 0.00%
- Relative abundance (%) Anaerotruncus (cecal microbiota): 0.48%
- Relative abundance (%) Clostridium sensu stricto 1 (cecal microbiota): 0.00%
- Relative abundance (%) Enterococcus (cecal microbiota): 0.00%
- Relative abundance (%) Erysipelatoclostridium (cecal microbiota): 3.51%
- Relative abundance (%) Escherichia-Shigella (cecal microbiota): 3.16† %
- Relative abundance (%) Flavonifractor (cecal microbiota): 1.20%
- Relative abundance (%) Lachnospiraceae (uncultured) (cecal microbiota): *11.71%
- Relative abundance (%) Oscillibacter (cecal microbiota): 1.35%
- Relative abundance (%) Pediococcus (cecal microbiota): 0.75%
- Relative abundance (%) Ruminiclostridium 5 (cecal microbiota): 0.00%
- Relative abundance (%) Ruminiclostridium 9 (cecal microbiota): 0.13† %
- Relative abundance (%) Ruminococcus torques group (cecal microbiota): 19.27%

Substance: PDENK [Peptide P2, PDENK]
- MIC50 (APEC O78): 9.5 mM
- MIC (APEC O78; 100% APEC growth inhibition): 12 mM
- Growth inhibition against APEC serotypes (multiple APEC serotypes): 95.0-100%
- Relative Abundance (%) Acinetobacter (cecal microbiota): 0.00%
- Relative Abundance (%) Blautia (cecal microbiota): 0.00%
- Relative Abundance (%) Caproiciproducens (cecal microbiota): 0.63%
- Relative Abundance (%) Enterobacteriaceae (unidentified) (cecal microbiota): 6.22%
- Relative Abundance (%) Epulopiscium (cecal microbiota): 0.17%
- Relative Abundance (%) Lachnospiraceae (unidentified) (cecal microbiota): 37.10%
- Relative Abundance (%) Lachnospiraceae NK4A136 group (cecal microbiota): 0.00%
- Relative Abundance (%) Lactobacillus (cecal microbiota): 5.57%
- Relative Abundance (%) Sellimonas (cecal microbiota): 1.76%
- Relative Abundance (%) [Clostridium] innocuum group (cecal microbiota): 0.00%
- Relative Abundance (%) [Eubacterium] coprostanoligenes group (cecal microbiota): 0.00%
- Relative abundance (%) Anaerotruncus (cecal microbiota): 0.00%
- Relative abundance (%) Clostridium sensu stricto 1 (cecal microbiota): 0.00%
- Relative abundance (%) Enterococcus (cecal microbiota): 0.00%
- Relative abundance (%) Erysipelatoclostridium (cecal microbiota): 5.56%
- Relative abundance (%) Escherichia-Shigella (cecal microbiota): 13.25%
- Relative abundance (%) Flavonifractor (cecal microbiota): 2.33%
- Relative abundance (%) Lachnospiraceae (uncultured) (cecal microbiota): 4.21%
- Relative abundance (%) Oscillibacter (cecal microbiota): 0.00%
- Relative abundance (%) Pediococcus (cecal microbiota): 0.00%
- Relative abundance (%) Ruminiclostridium 5 (cecal microbiota): 0.00%
- Relative abundance (%) Ruminiclostridium 9 (cecal microbiota): 0.00† %
- Relative abundance (%) Ruminococcus torques group (cecal microbiota): 23.19%
